According to article PMC10455806, “New Sorbicillinoids from the Mangrove Endophytic Fungus Trichoderma reesei SCNU-F0042” (Marine Drugs, 2023):
Where two headings read alike, the source gives them in different places.

What was measured:
Type in all cases: cell-based
SARS-CoV-2 (BA.2) = assay: microbe, parasite or virus in culture; conditions: for EC50: 48 h, mean from three parallel experiments, read-out: Inhibition of SARS-CoV-2 Viruses (EC50/μM)
[1] = Cell viability assay (MTT method); conditions: human
Protocol: (§1) […] Tested cell lines were cultured in Dulbecco’s modified Eagle’s medium (DMEM) (Invitrogen, Carlsbad, CA, USA) supplemented with 5% fetal bovine serum (Hyclone, Logan, UT, USA), 2 mM L-glutamine, […] streptomycin, and 100 units/mL penicillin (Invitrogen). The cultures were maintained at 37 °C in a humidified atmosphere of 5% CO2.

HEK 293T-hACE2 cells = assay: Cell viability assay (MTT method); conditions: at 80 μM, 293T cells
Protocol: as §1

[2] = Severe acute respiratory syndrome coronavirus 2, HEK-293T, […]
[3] = 293T cell, MTT, mean from three parallel experiments, read-out: Cytotoxicity for 293T Cell (IC50/μM)

| SMILES | antiviral activity against SARS-CoV-2 (SARS-CoV-2 (BA.2)) | EC50 (SARS-CoV-2 (BA.2); [2]) [µM] | IC50 [1, 3] [µM] | cytotoxicity (HEK 293T-hACE2 cells) | IC50 (SARS-CoV-2 (BA.2); Severe acute respiratory syndrome coronavirus 2, HEK-293T, […], read-out: IC50 (positive control, SARS-CoV-2 assay)) [µM] | IC50 [1] [µM] |
| --- | --- | --- | --- | --- | --- | --- |
| CC=CC=CC(=O)C1C(C2(C)OC(=O)C(C)=C2O)C2C(=C(O)C=CC=CCO)C(=O)C1(C)C(=O)C2(C)O (stereo not drawn) [Compound 1, 14-hydroxybislongiquinolide] | no activity | > 80 | > 80 |  |  |  |
| CC=CC=CC(O)=C1C(=O)C2(C)C(=O)C(C)(O)C1C(C1(C)OC(=O)C(C)=C1O)C2C(=O)C=CC=CCO (stereo not drawn) [Compound 2, 20-hydroxybislongiquinolide] |  | 29 | > 80 | without cytotoxicity |  |  |
| CC1=C(O)C(C)(C2C3C(=C(O)C=CC=CCO)C(=O)C(C)(C(=O)C3(C)O)C2C(=O)C=CC=CCO)OC1=O (stereo not drawn) [Compound 3, 14, 20-dihydroxybislongiquinolide] | no activity | > 80 | > 80 |  |  |  |
| CC(=O)Oc1cc(/C=C/C=C/C(=O)O)oc(=O)c1C [Compound 5, Acetylchrysopyrone B] | no activity | > 80 | > 80 |  |  |  |
| CCC(CC)COC(=O)[C@H](C)N[P@](=O)(OC[C@H]1O[C@@](C#N)(c2ccc3c(N)ncnn23)[C@H](O)[C@@H]1O)Oc1ccccc1 [Remdesivir, reference compound] |  | 1.2 |  |  | 1.2 | > 80 |
